pIC50: −log10 of the molar value. Where a name gives a salt, the structure may show the parent alone.
Molecular target: T1, human IKK-β (Homo sapiens, UniProt O14920)
T1 construct: A cDNA fragment encoding human IKK-β open reading frame was generated by PCR; His tag (from pcDNA3.1/His C); made in house; host or cells: Sf21 insect cells (baculovirus); substrate made in E. coli
T1 sequence (O14920 1-756): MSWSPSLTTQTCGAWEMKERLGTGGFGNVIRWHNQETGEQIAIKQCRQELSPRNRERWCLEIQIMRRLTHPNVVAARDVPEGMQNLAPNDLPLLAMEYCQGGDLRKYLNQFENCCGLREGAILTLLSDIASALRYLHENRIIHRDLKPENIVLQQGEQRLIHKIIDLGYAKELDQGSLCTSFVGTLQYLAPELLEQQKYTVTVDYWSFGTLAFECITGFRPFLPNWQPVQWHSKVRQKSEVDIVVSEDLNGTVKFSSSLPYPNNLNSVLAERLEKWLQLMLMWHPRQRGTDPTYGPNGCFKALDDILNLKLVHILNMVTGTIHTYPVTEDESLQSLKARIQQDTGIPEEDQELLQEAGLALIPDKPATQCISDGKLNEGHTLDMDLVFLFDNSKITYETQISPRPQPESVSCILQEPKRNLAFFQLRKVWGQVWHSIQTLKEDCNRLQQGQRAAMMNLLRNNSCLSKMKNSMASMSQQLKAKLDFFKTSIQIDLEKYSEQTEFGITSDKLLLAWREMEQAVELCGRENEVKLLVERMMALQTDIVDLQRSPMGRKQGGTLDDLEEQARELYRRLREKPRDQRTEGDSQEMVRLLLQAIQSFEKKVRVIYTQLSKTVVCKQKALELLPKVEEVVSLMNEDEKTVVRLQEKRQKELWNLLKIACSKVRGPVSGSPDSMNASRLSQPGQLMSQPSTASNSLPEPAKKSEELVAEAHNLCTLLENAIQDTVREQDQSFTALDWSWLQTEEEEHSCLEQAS
Assay: IKK-β kinase inhibitory assay
Assay type: biochemical
Conditions: compounds as yielded by solid phase synthesis, purity about 40 to 90%, read-out: In vitro activity grade (In vitro IC50)
Summary of the method: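 His-tagged human IKK-β from baculovirus-infected Sf21 cells (0.6 μg/ml final) phosphorylates biotinylated GST-IκBα(1-54) (0.2 μM) in Tris-HCl pH 7.6 buffer with MgCl2. ATP with [γ-33P]ATP added, then 2 h at room temperature. Biotinylated substrate captured on streptavidin plates; bound radioactivity counted by scintillation.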

First: N#Cc1c(C2CCCNC2)cc(-c2c(O)cccc2OCCN2CCCCC2)nc1N (stereo not drawn) [Example 2-83]
Second: N#Cc1c(C2CCCNC2)cc(-c2c(O)cccc2OCCN2CCCCCC2)nc1N (stereo not drawn) [Example 2-86]
The pIC50 of the first is higher: 5.70 to 6.30 for the first, 5.00 to 5.70 for the second.

Compared with `N#Cc1c(C2CCCNC2)cc(-c2c(O)cccc2OCCN2CCOCC2)nc1N` (stereo not drawn) [Example 2-84], `N#Cc1c(C2CCCNC2)cc(-c2c(O)cccc2OCCN2CCCC2)nc1N` (stereo not drawn) [Example 2-87] is lower in pIC50: greater than 6.30 for the first, 5.00 to 5.70 for the second. The first is the more potent here.

First: CN(C)CCOc1cccc(O)c1-c1cc(C2CCCNC2)c(C#N)c(N)n1 (stereo not drawn) [Example 2-85]
Second: O=c1ccc2c(C3CCCNC3)cc(-c3c(O)cccc3OCC3CC3)nc2[nH]1 (stereo not drawn) [Example 25-4, 7-[2-(cyclopropylmethoxy)-6-hydroxyphenyl]-5-(3-piperidinyl)-1,8-naphthyridin-2(1H)-one hydrochloride]
The pIC50 of the first is lower: 5.70 to 6.30 for the first, greater than 6.30 for the second.

`CCOC(=O)N1Cc2c(C3CCCNC3)cc(-c3c(O)cccc3OCC3CC3)nc2NC1=O` (stereo not drawn) [Example 24-2, ethyl 7-[2-(cyclopropylmethoxy)-6-hydroxyphenyl]-2-oxo-5-(3-piperidinyl)-1,4-dihydropyrido[2,3-d]pyrimidine-3(2H)-carboxylate hydrochloride] and `CS(=O)(=O)N1Cc2c(C3CCCNC3)cc(-c3c(O)cccc3OCC3CC3)nc2NC1=O` (stereo not drawn) [Example 24-4, 7-[2-(cyclopropylmethoxy)-6-hydroxyphenyl]-3-(methylsulfonyl)-5-(3-piperidinyl)-3,4-dihydropyrido[2,3-d]pyrimidin-2(1H)-one hydrochloride] cannot be ordered by pIC50: greater than 6.30 for the first, greater than 6.30 for the second.

`O=C1Nc2nc(-c3c(O)cccc3OCC3CC3)cc(C3CCCNC3)c2CN1C(=O)NC1CCCCC1` (stereo not drawn) [Example 24-3, N-cyclohexyl-7-[2-(cyclopropylmethoxy)-6-hydroxyphenyl]-2-oxo-5-(3-piperidinyl)-1,4-dihydropyrido[2,3-d]pyrimidine-3(2H)-carboxamide hydrochloride] and `NC(=O)C1Cc2c(C3CCNCC3)cc(-c3c(O)cccc3OCC3CC3)nc2NC1=O` (stereo not drawn) [Example 26-2, 7-[2-(cyclopropylmethoxy)-6-hydroxyphenyl]-2-oxo-5-(4-piperidinyl)-1,2,3,4-tetrahydro-1,8-naphthyridine-3-carboxamide hydrochloride] cannot be ordered by pIC50: greater than 6.30 for the first, greater than 6.30 for the second.

`CCOC(=O)c1cc2c(C3CCCNC3)cc(-c3ccccc3O)nc2[nH]c1=O` (stereo not drawn) [Example 25-1, ethyl 7-(2-hydroxyphenyl)-2-oxo-5-(3-piperidinyl)-1,2-dihydro-1,8-naphthyridine-3-carboxylate hydrochloride] and `CCOC(=O)C1Cc2c(C3CCCNC3)cc(-c3ccccc3O)nc2NC1=O` (stereo not drawn) [Example 26-1, ethyl 7-(2-hydroxyphenyl)-2-oxo-5-(3-piperidinyl)-1,2,3,4-tetrahydro-1,8-naphthyridine-3-carboxylate] cannot be ordered by pIC50: greater than 6.30 for the first, greater than 6.30 for the second.

`O=c1[nH]c2nc(-c3c(O)cccc3OCC3CC3)cc(C3CCCNC3)c2cc1F` (stereo not drawn) [Example 25-2, 7-[2-(cyclopropylmethoxy)-6-hydroxyphenyl]-3-fluoro-5-(3-piperidinyl)-1,8-naphthyridin-2(1H)-one hydrochloride] and `NC(=O)c1cc2c(C3CCNCC3)cc(-c3c(O)cccc3OCC3CC3)nc2[nH]c1=O` [Example 25-3, 7-[2-(cyclopropylmethoxy)-6-hydroxyphenyl]-2-oxo-5-(4-piperidinyl)-1,2-dihydro-1,8-naphthyridine-3-carboxamide hydrochloride] cannot be ordered by pIC50: greater than 6.30 for the first, greater than 6.30 for the second.

Molecule `O=C1CCc2c(C3CCCNC3)cc(-c3ccccc3O)nc2N1` (stereo not drawn) [Example 27-1, 7-(2-hydroxyphenyl)-5-(3-piperidinyl)-3,4-dihydro-1,8-naphthyridin-2(1H)-one hydrochloride] has a pIC50 greater than 6.30.

— patent publication US6984649B1, “Pyridine derivatives” (Bayer Aktiengesellschaft, priority 2000, dated 2006)
